Values of other authors as cited in publication PMC10795913 (The Journal of Clinical Endocrinology and Metabolism, 2023).

System: patients
Details: different assays, not directly comparable; cited from earlier work

Substance | ADA incidence in published studies
liraglutide | up to 8.7%
semaglutide | up to 4.3%
dulaglutide | up to 4.1%
